{"source": "patent US12208080B2", "about": "“Compositions and methods for modulation of extracellular vesicle release and treatment of neurological disorders” (GEORGE MASON RESEARCH FOUNDATION, INC., priority 2018, dated 2025)", "key": {"[1]": {"test_system": "RNA polymerase II (Pol II) loading", "assay": "Chromatin immunoprecipitation of Pol II, qPCR for TAR DNA", "assay_type": "cell-based", "details": "U1; CBD 10 μM, Flavo 50 nM; 2-hour and 6-hour; FIG. 15C", "procedure": "FIGS. 15A-15C are graphs and gels showing cannabidiols lower intracellular viral transcription and downstream viral products. U1 cells (1×10^6) were treated with a titration of CBD (1, 5, 10 μM) and THC (1, 5, 10 μg/mL) every day for 5 days. A) Intracellular RNA was isolated and analyzed through RT-qPCR for HIV-1 viral transcripts TAR and env. Each bar represents an average of three independent replicates. B) U1 cells (2×10^6) were treated with a titration of CBD (1, 5, 10 μM) every day for 5 days. Cells pellets were lysed, run through SDS-PAGE, and western blotted for (p-)/NF-κB, autophagosomal markers (p63, LC3), EV biogenesis marker VPS4, viral markers (gp120, Nef, p24), and Actin. C) U1 cells (5×10^6) were treated±CBD (10 μM) and Flavopiridol hydrochloride (50 nM; indicated as Flavo) and incubated for the following time points: 0 minutes, 2 hours and 6 hours. Cells were cross-linked with 1% formaldehyde solution and ChIP-ed for IgG and Pol II. ChIP DNA samples were analyzed via qPCR for TAR and env. Student's t-test was used for statistical analysis, where *p-value≤0.05; **p-value≤0.01, ***p-value≤0.001. […]\nU1 monocytes were treated with CBD (10 μM) and Flavo (50 nM) for short periods (0, 2 and 6 hours) due to the fact that HIV-1 transcription activity is a rapid event that can be scored using chromatin immunoprecipitation (ChIP) assay for factor occupancy. […]"}, "[2]": {"test_system": "autophagy proteins (p62, LC3, ATG12-ATG5, ATG12, Beclin-1) in U1 cells", "assay": "Autophagy protein profile, CBD versus autophagy drugs, in U1 cells and their EVs (Western blot)", "assay_type": "cell-based", "details": "5 days, Rapamycin 50 nM, INK128 50 nM", "procedure": "FIGS. 18A-18B are gels showing CBD promotes autophagy turnover, resulting in a decrease in extracellular autophagosomal secretion. A) U1 cells (1×10^6) were treated±CBD (10 μM) for the following incubation periods: 0, 6, 24, and 48 hours. Cells were pelleted and lysed, exosomes from supernatants were enriched with NT80/82 beads overnight at 4° C. Samples were run through SDS-PAGE and western blotted for autophagy proteins (p62 and LC3), and Actin. B) U1 cells (1×10^6) were treated±10 μM CBD (every day), Rapamycin (50 nM), INK128 (50 nM), Bafilomycin A1 (50 nM), SB 203580 (20 μM), Wortmannin (2 nM) for a 5-day incubation period. Cells were pelleted and lysed, exosomes from supernatants were enriched using NT80/82 beads overnight at 4° C. Samples were run through SDS-PAGE and western blotted for autophagy proteins (p62, LC3, ATG12-ATG5, ATG12, Beclin-1), and Actin.\nFIGS. 21A-21K are graphs showing normalized densitometry analysis of CBD and autophagy drug treatment on HIV-1 infected monocytes. Intracellular (A) p62, (B) LC3 I, (C) LC3 II, (D) ATG12-ATG5 complex, (E) ATG12, and (F) Beclin-1, and extracellular (G) p62, (H) LC3 I, (I) LC3 II, (J) ATG12-ATG5 complex, and (K) Beclin-1 densitometry counts were calculated from the Western blot data in FIG. 5B, normalized to respective intracellular and extracellular Actin levels, and plotted.\nTo determine the specific points at which CBD inhibits intracellular and extracellular autophagosome formation and secretion, we compared CBD treatment of U1 monocytes with known inhibitors of different points in the autophagy pathway. Cell viability was assessed among a panel of titrated autophagy drugs and the least toxic concentration per drug was utilized (FIG. 20). We treated U1 cells with CBD (10 μM) every day, Rapamycin (50 nM), INK128 (50 nM), Bafilomycin A1 (50 nM), SB 203580 (20 μM), or Wortmannin (2 nM) for 5 days. Our rationale for using these drugs was that they regulate different steps of autophagy including nucleation inhibition by inhibiting MTOR activity (Rapamycin, INK128) or by inhibiting pre-autophagosomal VPS34 complex activity (Wortmannin, SB 203580), and autophagosome-lysosome fusion inhibition (Bafilomycin A1). Therefore, a side-by-side comparison to CBD would potentially allow for a better definition of which step of autophagosome formation is primarily regulated by CBD. U1 cells were treated with the autophagy regulators and harvested along with their corresponding supernatants for further analysis using Western blot against p62, LC3, ATG12-ATG5 complex, free ATG12, Beclin-1, and Actin. Results in FIG. 18B (intracellular proteins, top panel) show autophagy protein profiles associated with the various autophagy regulators. […] The corresponding supernatants were enriched for EVs and also analyzed for the presence of autophagy proteins."}, "[3]": {"details": "CBD 10 μM every day, FIG. 18B top panel"}, "[4]": {"details": "CBD 10 μM, Bafilomycin A1 50 nM, SB 203580 20 μM, Wortmannin 2 nM, lower panel"}}, "data": [{"compound": "C=C(C)[C@@H]1CCC(C)=C[C@H]1c1c(O)cc(CCCCC)cc1O", "note": "[CBD, 2-[1R-3-methyl-6R-(1-methylethenyl)-2-cyclohexen-1-yl]-5-pentyl-1,3-benzenediol]", "values": [{"measurement": "Pol II-associated TAR DNA versus untreated", "setting": "[1]", "value": "statistically significant decreases"}, {"measurement": "intracellular ATG12-ATG5", "setting": "[2]; [3]", "value": "low levels"}, {"measurement": "intracellular Beclin-1", "setting": "[2]; [3]", "value": "high levels"}, {"measurement": "intracellular LC3 I", "setting": "[2]; [3]", "value": "low levels"}, {"measurement": "EV-associated LC3 I", "setting": "[2]; [4]", "value": "reduction"}, {"measurement": "EV-associated p62", "setting": "[2]; [4]", "value": "reduction"}]}]}
